Assay results: patent US20230210802A1, “COMPOSITION FOR RELIEVING HANGOVER AND IMPROVING LIVER FUNCTION” (Zefit Inc., priority 2022, published 2023)

Tested on: zebrafish model showing an anesthetic effect by acute alcohol treatment
Assay: Movement distance of zebrafish model with acute alcohol treatment (total distance, video tracking 20 minutes)
Format: in vivo
Conditions: zebrafish larvae 7 dpf, ETOH 2%, omega-3 1.4 mg/L, B2 0.2 mg/L, B3 0.5 mg/L, values converted from FIG. 4
Method: First, each of omega-3 fatty acid (1.4 mg/L), riboflavin (vitamin B2) (0.2 mg/L), and nicotinamide (vitamin B3) (0.5 mg/L) was dissolved in E3 media to prepare a pre-treatment solution. A mixture of omega-3 fatty acid (1.4 mg/L), riboflavin (vitamin B2) (0.2 mg/L), and nicotinamide (vitamin B3) (0.5 mg/L) was dissolved in E3 media to prepare a pre-treatment solution. Each of omega-3 fatty acid (1.4 mg/L), riboflavin (vitamin B2) (0.2 mg/L), and nicotinamide (vitamin B3) (0.5 mg/L) was dissolved in ETOH 2% (in E3 media) to prepare a post-treatment solution. A mixture of omega-3 fatty acid (1.4 mg/L), riboflavin (vitamin B2) (0.2 mg/L), and nicotinamide (vitamin B3) (0.5 mg/L) was dissolved in ETOH 2% (in E3 media) to prepare a post-treatment solution. Zebrafish larvae at 7 days post-fertilization (dpf) were exposed in water to 200 μl/well of the pre-treatment solution for each group (n=20/group) in a 96-well plate for 1 hour. 1 zebrafish larva was in each well. After 1 hour of pre-treatment, the pre-treatment solution was replaced with 200 μl/well of the post-treatment solution for each group, followed by exposure in water. Subsequently, the behaviors of the zebrafish larvae were recorded for 20 minutes. After recording, the cumulative distances for each section (0-5 min, 5-10 min, 10-15 min, and 15-20 min) of the normal control and the experimental groups were analyzed, and the results thereof are shown in FIGS. 1 and 2. […]
Particularly, the behaviors of zebrafish larvae were recorded for 20 minutes, and after recording, the total distance for an experiment time of 20 minutes of each of the normal control and the experimental groups was analyzed, and the results thereof are shown in FIG. 4. […]

NC(=O)c1cccnc1 [ETOH + B3, nicotinamide]
Average value of total movement distance: 77.39 mm

omega-3 fatty acid [ETOH + Omega-3 fatty acid]
Average value of total movement distance: 399.3 mm

riboflavin [ETOH + B2]
Average value of total movement distance: 223.97 mm
